Like-named read-outs stand apart in the source and are kept apart here.

The experiment has as its target human DGAT2 (Homo sapiens (Human), UniProt Q96PD7). Put plainly: DGAT2 Enzymatic Activity Assay. The settings on record: 13C18-triolein product by LC/MS/MS.
Where [1] appears, read: read-out: Human DGAT2 IC50, hDGAT2 membrane prep from Sf-9 cells.
The mark [2] stands for this setting: Human DGAT2 IC50, hDGAT2 membrane prep from Sf-9 cells.

Sequence of human DGAT2 (Q96PD7 whole entry): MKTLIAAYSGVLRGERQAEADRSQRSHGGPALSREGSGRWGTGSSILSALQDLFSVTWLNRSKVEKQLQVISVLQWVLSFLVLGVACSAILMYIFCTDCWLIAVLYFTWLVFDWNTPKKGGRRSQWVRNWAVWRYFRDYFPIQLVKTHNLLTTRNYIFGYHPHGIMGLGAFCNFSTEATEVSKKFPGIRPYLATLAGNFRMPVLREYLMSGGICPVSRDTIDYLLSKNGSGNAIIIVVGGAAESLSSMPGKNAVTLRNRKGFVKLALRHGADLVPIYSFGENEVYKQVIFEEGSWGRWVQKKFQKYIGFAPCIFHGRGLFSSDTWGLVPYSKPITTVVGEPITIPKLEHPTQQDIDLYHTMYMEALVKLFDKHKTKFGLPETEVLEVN

With `Cc1cnc(Oc2ccc3nc(C(=O)NC4(C)CCS(=O)(=O)CC4)n(C)c3n2)c(OCC(F)F)c1` [Example 37, 5-[[3-(2,2-difluoroethoxy)-5-methyl-2-pyridyl]oxy]-3-methyl-N-(4-methyl-1,1-dioxo-thian-4-yl)imidazo[4,5-b]pyridine-2-carboxamide], under setting [1], the IC50 is 29 nM.

In the case of `CC1(NC(=O)c2nc3ccc(Oc4ncc(Cl)cc4OCC(F)(F)F)cc3o2)CCS(=O)(=O)CC1` [Example 3, 6-[[5-chloro-3-(2,2,2-trifluoroethoxy)-2-pyridyl]oxy]-N-(4-methyl-1,1-dioxo-thian-4-yl)-1,3-benzoxazole-2-carboxamide], the IC50 under setting [1] came to 63 nM. With `Cn1c(C(=O)NC2(C)CCS(=O)(=O)CC2)nc2ccc(Oc3ncc(F)cc3OCC(F)(F)F)nc21` [Example 29, 5-((5-Fluoro-3-(2,2,2-trifluoroethoxy)pyridin-2-yl)oxy)-3-methyl-N-(4-methyl-1,1-dioxidotetrahydro-2H-thiopyran-4-yl)-3H-imidazo[4,5-b]pyridine-2-carboxamide], under setting [2], the midpoint of inhibition, the IC50, lay at 12 nM.

For the compound `Cn1c(C(=O)NC2(C)CCS(=O)(=O)CC2)cc2ccc(Oc3ncc(Cl)cc3OCC(F)F)nc21` [Example 99, 6-((5-Chloro-3-(2,2-difluoroethoxy)pyridin-2-yl)oxy)-1-methyl-N-(4-methyl-1,1-dioxidotetrahydro-2H-thiopyran-4-yl)-1H-pyrrolo[2,3-b]pyridine-2-carboxamide], the IC50 under setting [2] came to 1.1 nM. As to `Cc1cnc(Oc2cc3c(cn2)nc(C(=O)NC2(C)CCS(=O)(=O)CC2)n3C)c(OCC(F)F)c1` [Example 73, 6-[[3-(2,2-difluoroethoxy)-5-methyl-2-pyridyl]oxy]-1-methyl-N-(4-methyl-1,1-dioxo-thian-4-yl)imidazo[4,5-c]pyridine-2-carboxamide], the IC50 under setting [1] is 9.1 nM.

As for `Cn1c(C(=O)NC2(C)CCS(=O)(=O)CC2)nc2cnc(Oc3ncc(F)cc3OCC(F)(F)F)cc21` [Example 68, 6-[[5-fluoro-3-(2,2,2-trifluoroethoxy)-2-pyridyl]oxy]-1-methyl-N-(4-methyl-1,1-dioxo-thian-4-yl)imidazo[4,5-c]pyridine-2-carboxamide], the IC50 under setting [1] came out at 27 nM. For `Cn1c(C(=O)NC2(C)CCS(=O)(=O)CC2)nc2cnc(Oc3ncc(F)cc3OCC(F)F)cc21` [Example 72, 6-[[3-(2,2-difluoroethoxy)-5-fluoro-2-pyridyl]oxy]-1-methyl-N-(4-methyl-1,1-dioxo-thian-4-yl)imidazo[4,5-c]pyridine-2-carboxamide], under setting [1], the IC50 came to 6.9 nM. `Cn1c(C(=O)NC2(C)CCS(=O)(=O)CC2)nc2ncc(Oc3ncc(Cl)cc3OCC(F)F)nc21` [Example 90, 6-((5-Chloro-3-(2,2-difluoroethoxy)pyridin-2-yl)oxy)-1-methyl-N-(4-methyl-1,1-dioxidotetrahydro-2H-thiopyran-4-yl)-1H-imidazo[4,5-b]pyrazine-2-carboxamide] showed an IC50 under setting [2] of 4.1 nM. As to `Cn1c(C(=O)NC2(C)CCS(=O)(=O)CC2)nc2ccc(OCC(CC(F)(F)F)OC(F)F)nc21` (single isomer, unassigned) [Example 62a, 5-[2-(difluoromethoxy)-4,4,4-trifluoro-butoxy]-3-methyl-N-(4-methyl-1,1-dioxo-thian-4-yl)imidazo[4,5-b]pyridine-2-carboxamide], half-maximal inhibition under setting [2] (IC50) required 1330 nM. For `Cn1c(C(=O)NC2(C)CCS(=O)(=O)CC2)nc2ncc(Oc3ncc(F)cc3OCC(F)(F)F)cc21` [Example 83, 6-[[5-fluoro-3-(2,2,2-trifluoroethoxy)-2-pyridyl]oxy]-1-methyl-N-(4-methyl-1,1-dioxo-thian-4-yl)imidazo[4,5-b]pyridine-2-carboxamide], the IC50 under setting [1] turned out to be 12 nM. Compound `Cn1c(C(=O)NC2(C)CCS(=O)(=O)CC2)nc2cc(Cl)c(Oc3ncc(Cl)cc3OCC(F)F)nc21` [Example 44, 6-chloro-5-((5-chloro-3-(2,2-difluoroethoxy)pyridin-2-yl)oxy)-3-methyl-N-(4-methyl-1,1-dioxidotetrahydro-2H-thiopyran-4-yl)-3H-imidazo[4,5-b]pyridine-2-carboxamide] had an IC50 under setting [2] of 86 nM.

With `Cn1c(C(=O)NC2(C)CCS(=O)(=O)CC2)nc2ccc(Oc3nccnc3OCC(F)F)nc21` [Example 38, 5-[3-(2,2-difluoroethoxy)pyrazin-2-yl]oxy-3-methyl-N-(4-methyl-1,1-dioxo-thian-4-yl)imidazo[4,5-b]pyridine-2-carboxamide], the IC50 under setting [1] is 20 nM.

As for `Cn1c(C(=O)NC2(C)CCS(=O)(=O)CC2)nc2ccc(OCC(OCC(F)F)C(F)F)nc21` (single isomer, unassigned) [Example 65b, 5-[2-(2,2-difluoroethoxy)-3,3-difluoro-propoxy]-3-methyl-N-(4-methyl-1,1-dioxo-thian-4-yl)imidazo[4,5-b]pyridine-2-carboxamide], under setting [2], the IC50 was found to be 2.8 nM. The same measure, in the same setting: to `Cn1c(C(=O)NC2(C)CCS(=O)(=O)CC2)nc2cc(F)c(Oc3ncc(Cl)cc3OCC(F)F)nc21` [Example 41, 5-((5-chloro-3-(2,2-difluoroethoxy)pyridin-2-yl)oxy)-6-fluoro-3-methyl-N-(4-methyl-1,1-dioxidotetrahydro-2H-thiopyran-4-yl)-3H-imidazo[4,5-b]pyridine-2-carboxamide] belongs 1.5 nM.

Turning to `Cc1nc(Oc2ncc(Cl)cc2OCC(F)F)cc2c1nc(C(=O)NC1(C)CCS(=O)(=O)CC1)n2C` [Example 74, 6-[5-chloro-3-(2,2-difluoroethoxy)pyridin-1-ium-2-yl]oxy-1,4-dimethyl-N-(4-methyl-1,1-dioxo-thian-4-yl)imidazo[4,5-c]pyridine-2-carboxamide], the IC50 under setting [1] worked out at 14 nM. In turn, `Cn1c(C(=O)NC2(C)CCS(=O)(=O)CC2)nc2ccc(Oc3ncc(Cl)cc3OCC(F)(F)F)c(Cl)c21` [Example 23, 7-Chloro-6-((5-chloro-3-(2,2,2-trifluoroethoxy)pyridin-2-yl)oxy)-1-methyl-N-(4-methyl-1,1-dioxidotetrahydro-2H-thiopyran-4-yl)-1H-benzo[d]imidazole-2-carboxamide] yielded an IC50 under setting [2] of 2.2 nM. `Cn1c(C(=O)NC2(C)CCS(=O)(=O)CC2)nc2ccc(OCC(OCC(F)F)C(F)F)nc21` (single isomer, unassigned) [Example 65a, 5-[2-(2,2-difluoroethoxy)-3,3-difluoro-propoxy]-3-methyl-N-(4-methyl-1,1-dioxo-thian-4-yl)imidazo[4,5-b]pyridine-2-carboxamide]: inhibition under setting [2] was half-maximal at 215 nM (IC50). For the compound `CC1(NC(=O)c2nc3nc(Oc4ncc(Cl)cc4OCC(F)F)ccc3n2CC2(F)COC2)CCS(=O)(=O)CC1` [Example 56, 5-((5-chloro-3-(2,2-difluoroethoxy)pyridin-2-yl)oxy)-1-((3-fluorooxetan-3-yl)methyl)-N-(4-methyl-1,1-dioxidotetrahydro-2H-thiopyran-4-yl)-1H-imidazo[4,5-b]pyridine-2-carboxamide], the IC50 under setting [1] was 51 nM. For the compound `Cn1c(C(=O)NC2(C)CCS(=O)(=O)CC2)nc2ccc(OCC(OCC(F)F)C(F)(F)F)nc21` (single isomer, unassigned) [Example 64a, 5-[2-(2,2-difluoroethoxy)-3,3,3-trifluoro-propoxy]-3-methyl-N-(4-methyl-1,1-dioxo-thian-4-yl)imidazo[4,5-b]pyridine-2-carboxamide], the IC50 under setting [2] amounted to 1650 nM.

Take `CC1(NC(=O)c2nc3ccc(Oc4ncc(Cl)cc4OCC(F)F)nc3[nH]2)CCS(=O)(=O)CC1` [Example 50, 5-((5-chloro-3-(2,2-difluoroethoxy)pyridin-2-yl)oxy)-N-(4-methyl-1,1-dioxidotetrahydro-2H-thiopyran-4-yl)-3H-imidazo[4,5-b]pyridine-2-carboxamide]: the IC50 under setting [2] was 15 nM.

`Cc1nc2nc(C(=O)NC3(C)CCS(=O)(=O)CC3)n(C)c2cc1Oc1ncc(Cl)cc1OCC(F)F` [Example 86, 6-[[5-Chloro-3-(2,2-difluoroethoxy)-2-pyridyl]oxy]-1,5-dimethyl-N-(4-methyl-1,1-dioxo-thian-4-yl)imidazo[4,5-b]pyridine-2-carboxamide]: 39 nM corresponded to half-maximal inhibition under setting [2] (IC50). Regarding `Cn1c(C(=O)NC2(C)CCS(=O)(=O)CC2)nc2cnc(OCc3ncc(Cl)cc3OCC(F)F)cc21` [Example 80, 6-((5-Chloro-3-(2,2-difluoroethoxy)pyridin-2-yl)methoxy)-1-methyl-N-(4-methyl-1,1-dioxidotetrahydro-2H-thiopyran-4-yl)-1H-imidazo[4,5-c]pyridine-2-carboxamide], 30 nM corresponded to half-maximal inhibition under setting [2] (IC50). As for `Cn1c(C(=O)NC2(C)CCS(=O)(=O)CC2)nc2ccc(OCc3ncc(F)cc3OCC(F)(F)F)nc21` [Example 59, 5-[[5-Fluoro-3-(2,2,2-trifluoroethoxy)-2-pyridyl]methoxy]-3-methyl-N-(4-methyl-1,1-dioxo-thian-4-yl)imidazo[4,5-b]pyridine-2-carboxamide], the IC50 under setting [1] was determined as 2.8 nM. Same read-out and setting: to `CO[C@]1(C(F)(F)F)C[C@@H](NC(=O)c2nc3ccc(Oc4ncc(Cl)cc4OCC(F)(F)F)cc3o2)C1` [Example 7, 6-[[5-chloro-3-(2,2,2-trifluoroethoxy)-2-pyridyl]oxy]-N-[3-methoxy-3-(trifluoromethyl)cyclobutyl]-1,3-benzoxazole-2-carboxamide] belongs 1410 nM. As to `Cn1c(C(=O)NC2(C)CCS(=O)(=O)CC2)nc2c(Cl)c(Oc3ncc(Cl)cc3OCC(F)(F)F)ccc21` [Example 24, 4-Chloro-5-((5-chloro-3-(2,2,2-trifluoroethoxy)pyridin-2-yl)oxy)-1-methyl-N-(4-methyl-1,1-dioxidotetrahydro-2H-thiopyran-4-yl)-1H-benzo[d]imidazole-2-carboxamide], the IC50 under setting [2] is 89 nM. `O=C(N[C@H]1CCOC1)c1nc2ccc(Oc3ncc(Cl)cc3OCC(F)(F)F)cc2o1` [Example 5, 6-[[5-chloro-3-(2,2,2-trifluoroethoxy)-2-pyridyl]oxy]-N-[(3S)-tetrahydrofuran-3-yl]-1,3-benzoxazole-2-carboxamide]: under setting [1], the IC50 came out at 1810 nM.

For the compound `Cc1c(Oc2ncc(Cl)cc2OCC(F)(F)F)ccc2nc(C(=O)NC3(C)CCS(=O)(=O)CC3)n(C)c12` [Example 25, 6-((5-chloro-3-(2,2,2-trifluoroethoxy)pyridin-2-yl)oxy)-1,7-dimethyl-N-(4-methyl-1,1-dioxidotetrahydro-2H-thiopyran-4-yl)-1H-benzo[d]imidazole-2-carboxamide], the IC50 under setting [2] worked out at 0.6 nM.
